# How the values were obtained:
# db/db mice [1] = settings: mouse, in vivo; for H&E staining of skeletal muscle: 20 mg/kg
# Description: (§4) (A) Changes in blood glucose levels was monitored in db/db mice administered once a day with vehicle, WY14643 (WY, 20 mg/kg), rosiglitazone (rosi, 20 mg/kg), or MD001 (n = 5–6 per group) as indicated. […] (D–M) The change in various blood metabolites was examined in db/db mice administered once a day with vehicle, WY14643 (WY), rosiglitazone (rosi), or MD001 (n = 5–6 per group). *, **, and ^#, vs. vehicle; ^†, vs. vehicle, MD001(5 mg/kg), and MD001(20 mg/kg). The data represent the mean ± S.D. *P < 0.05, **P < 0.01, ^#P < 0.001, and ^†P < 0.01.
# (§5) Six-week-old C57BLKS/J-Lepr^db/Lepr^db or wild type C57BL/6J male mice were purchased from Orient Bio, Inc. (Seongnam, Korea) and acclimatised for one week. Mice were randomly grouped and orally administered with vehicle, WY14643 (20 mg/kg), rosiglitazone (20 mg/kg), or MD001 (5 mg/kg or 20 mg/kg) once a day for two months. […] Blood glucose levels were measured at the indicated time point using an OneTouch Ultra Blood Glucose Monitoring System (LifeScan, Inc., Milpitas, CA, USA).
# (§6) Livers and blood samples were collected from mice in each group.
# (§7) Tissues specimens including liver, perigonadal adipose tissue, skeletal muscle, spleen, kidney, and heart, were collected from mice in each group, fixed in 10% formalin, and embedded into paraffin. Tissue sections (5 μm) were stained with haematoxylin and eosin (H&E).
# wild type C57BL/6J mice = assay: Oral once-daily administration to wild type C57BL/6J mice; format: in vivo, mouse; settings: wild type C57BL/6J mice
# Description: Supplementary Figure S6. MD001 has no influence on food intake of mice. (A) Wild type C57/BL6 mice were orally administered with vehicle, rosiglitazone (20 mg/kg), or MD001 (20 mg/kg) once a day for 60 days. The change in their body weight was evaluated and presented as gain of body weight per group (n = 5 - 6 in each group). (B) The 3-day food intake in wild type C57/BL6 mice or db/db mice during the administration of the indicated drug was measured three times (n = 5 - 6 in each group). The data represent the mean ± SD.
# C57/BL6 mice. (A-H) Wild type C57/BL6 mice were administered with vehicle, rosiglitazone (20 mg/kg), or MD001 (20 mg/kg) (n = 5 in each group) for 60 days, and their blood metabolites were measured. (B) Blood glucose level was examined during the administration of the […]
# db/db mice [2] = assay: Oral once-daily administration to diabetic db/db mice; settings: db/db mice; for number of large fat cells (>150 μm in diameter) / number of small fat cells (<100 μm in diameter): adipose tissue H&E; for blood glucose levels: MD001 5 or 20 mg/kg, WY14643 20 mg/kg, rosiglitazone 20 mg/kg; for diameter of the glomerular capsule: 20 mg/kg once a day for 60 days
# Description: as §4, §5, §6, §7
# human HA-PPARγ = biological target: T1, human HA-PPARγ (Homo sapiens, UniProt P37231); assay: PPRE luciferase activity assay in HEK293 cells transfected with HA-PPARγ; format: cell-based; parameters: transcriptional activity of PPARγ: dose or concentration left out as unconfirmed; settings: HEK293, PPRE-pk-Luc; 24 h (Supplementary Fig. S2)
# T1 construct: expressed in transfected cells; host or cells: HEK293
# T1 sequence (P37231 1-505): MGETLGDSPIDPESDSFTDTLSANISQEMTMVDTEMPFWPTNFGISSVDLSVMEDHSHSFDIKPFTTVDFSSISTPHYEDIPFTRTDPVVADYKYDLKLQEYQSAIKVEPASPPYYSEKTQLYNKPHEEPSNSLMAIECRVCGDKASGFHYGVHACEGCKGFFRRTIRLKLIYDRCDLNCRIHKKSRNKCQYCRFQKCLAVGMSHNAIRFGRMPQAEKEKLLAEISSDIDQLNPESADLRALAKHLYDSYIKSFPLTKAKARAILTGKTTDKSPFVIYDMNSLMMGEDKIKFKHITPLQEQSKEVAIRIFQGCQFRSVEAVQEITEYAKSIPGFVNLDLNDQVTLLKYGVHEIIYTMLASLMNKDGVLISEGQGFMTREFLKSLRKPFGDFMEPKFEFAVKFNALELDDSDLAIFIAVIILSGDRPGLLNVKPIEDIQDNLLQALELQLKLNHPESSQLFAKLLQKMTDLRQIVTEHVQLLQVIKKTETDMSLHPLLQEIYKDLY
# Description: (§1) Figure 2 MD001 induces the expression of target genes through PPARα and PPARγ activation. HEK293 cells were transiently co-transfected with human HA-PPARα (A) and HA-PPARγ (B) expression vectors along with the reporter plasmid (PPRE-pk-Luc) or control reporter plasmid (pk-Luc) with Renilla vector for 24 h. Cells were treated with MD001 (10 μM), rosiglitazone (rosi) (10 μM) or WY14643 (WY) (10 μM) for 24 h. Luciferase activity was normalised to Renilla luciferase activity as described in the Methods section. **, vs. vehicle. (C) HepG2 cells were treated with MD001 (10 μM) for 24 h, and total RNA was isolated and synthesised into cDNA. Relative expression was quantitated using qRT-PCR. **, vs. vehicle. (D,E) HepG2 cells were transfected with control siRNA, PPARα siRNA (D), or PPARγ siRNA (E) for 48 h and treated with vehicle, WY14643 (10 μM), rosiglitazone (10 μM) or MD001 (10 μM) for 24 h. Subsequently, cells were harvested for total RNA isolation. Relative expression of target genes was quantitated using qRT-PCR. ^#, vs. control siRNA; ^‡, vs. control siRNA/vehicle; ^§, vs. control siRNA/WY; * and **, vs. control siRNA/MD001. Data represent the mean ± SD of three independent experiments. *P < 0.05, **P < 0.01, ^#P < 0.01, ^‡P < 0.01, and ^§P < 0.01.
# (§2) For transient transfection, cells were transfected with plasmid DNA constructs by polyethylenimine (PEI, Polysciences, Inc., Warrington, PA, USA) according to the manufacturer’s instructions. Transcription activity assays of PPARα and PPARγ in HEK293 cells were performed by co-transfection of HA-PPARα, HA-PPARγ, and peroxisome proliferator-response element (PPRE) reporter plasmid (PPRE-pk-Luc) or control reporter plasmid (pk-Luc) with Renilla vector for 24 h. […] Luciferase activity was measured with the Dual-Luciferase Reporter Assay System (Promega, Madison, WI, USA) and quantified using GloMax (Promega, USA) according to the manufacturer’s protocol. […]
# (§3) Luciferase activity was measured as described in the Methods section. […]
# human HA-PPARα = biological target: T2, human HA-PPARα (Homo sapiens, UniProt Q07869); assay: PPRE luciferase activity assay in HEK293 cells transfected with HA-PPARα; format: cell-based; parameters: transcriptional activity of PPARα: dose or concentration left out as unconfirmed; settings: HEK293, PPRE-pk-Luc; 24 h (Supplementary Fig. S2)
# T2 construct: expressed in transfected cells; host or cells: HEK293
# T2 sequence (Q07869 1-468): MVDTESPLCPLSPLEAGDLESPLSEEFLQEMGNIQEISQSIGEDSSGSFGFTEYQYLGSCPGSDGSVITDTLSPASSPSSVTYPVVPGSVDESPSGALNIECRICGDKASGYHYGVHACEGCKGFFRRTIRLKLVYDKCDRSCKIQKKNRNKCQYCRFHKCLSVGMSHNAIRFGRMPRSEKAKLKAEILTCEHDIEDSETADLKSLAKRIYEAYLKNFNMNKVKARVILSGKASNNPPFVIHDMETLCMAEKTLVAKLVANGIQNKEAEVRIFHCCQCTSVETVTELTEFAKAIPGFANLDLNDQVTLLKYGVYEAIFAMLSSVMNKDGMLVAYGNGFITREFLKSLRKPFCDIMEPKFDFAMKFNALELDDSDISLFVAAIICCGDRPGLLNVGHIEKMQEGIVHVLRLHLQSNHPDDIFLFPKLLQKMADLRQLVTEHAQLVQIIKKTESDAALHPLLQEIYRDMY
# Description: as §1, §2, §3
Compound,H&E staining of skeletal muscle (db/db mice [1]),"H&E staining of adipose tissue, skeletal muscle, and liver (wild type C57BL/6J mice; 20 mg/kg once a day for 60 days)",number of large fat cells (>150 μm in diameter) (db/db mice [2]),number of small fat cells (<100 μm in diameter) (db/db mice [2]),blood FFA (db/db mice [2]; oral once a day),blood TG (db/db mice [2]; oral once a day),blood alanine aminotransferase (ALT) levels (db/db mice [2]; oral once a day),blood aspartate aminotransferase (AST) levels (db/db mice [2]; oral once a day),blood glucose levels (db/db mice [2]; oral once a day),hepatic TG (db/db mice [2]; 20 mg/kg),hepatic steatosis (H&E staining of liver) (db/db mice [2]; 20 mg/kg),diameter of the glomerular capsule (db/db mice [2]),food ingestion (db/db mice [1]),body weight gain (wild type C57BL/6J mice; once a day for 60 days),transcriptional activity of PPARγ (human HA-PPARγ),transcriptional activity of PPARα (human HA-PPARα),melting point [°C]
"CN(CCOc1ccc(CC2SC(=O)NC2=O)cc1)c1ccccn1 (stereo not drawn) [rosiglitazone, reference compound]",no differences,no differences,significantly reduced,significantly increased,significantly decreased,significantly decreased,significantly increased,significantly increased,significantly decreased,failed to reduce,exacerbated hepatic steatosis,significantly reduced,,,,,
"Cc1cccc(Nc2cc(Cl)nc(SCC(=O)O)n2)c1C [WY14643, reference compound]",no differences,,significantly reduced,significantly increased,significantly decreased,significantly decreased,,,significantly decreased,,,significantly reduced,without changes in food ingestion,no induction of body weight gain,,,
Cc1c(O)cc2oc(=O)c(C(=O)/C=C/c3ccccc3)c(-c3ccccc3)c2c1O [MD002],,,,,,,,,,,,,,,failed to enhance,failed to enhance,274 to 278
